Laboratory results from patent US20090176888A1, “COMPOSITION COMPRISING PHYTOSPHINGOSINE OR DERIVATIVE THEREOF” (KOREA INSTITUTE OF RADIOLOGICAL & MEDICAL SCIENCES, priority 2003, published 2009).

Assays:
[1] = Oral or transdermal toxicity tests; conditions: rat, in vivo, other: oral or transdermal, rats
[2] = test system: caspases in human blood cancer cells; assay: Western blotting of caspase-3, caspase-8, caspase-9 and PARP; type: cell-based; conditions: 5 and 10 μg/ml phytosphingosine, FIG. 10
Method: (§1) Human lung cancer cells and blood cancer cells were cultured under the same condition as in the apoptosis test and were treated with 10 ml of phytosphingosine (10 μg/ml of phytosphingosine for lung cancer cells, and 5 μg/ml and 10 μg/ml of phytosphingosine for blood cancer cells). Then, the analysis of mitochondrial membrane potential and western blotting was carried out. Phytosphingosine-treated human lung cancer cells and blood cancer cells were dissolved in a protease inhibitor-containing lysis buffer (40 mM Tris-Cl (pH 8.0), 120 mM NaCl, 0.1% […]) and centrifuged to give a protein extract. Pure proteins were isolated from the protein extract using SDS-PAGE and transferred to a nitrocellulose membrane. The protein-bound nitrocellulose membrane was blocked with skim milk and incubated with as caspase-3, caspase-8, caspase-9, and poly(ADP-ribose)polymerase (PARP) as primary antibodies at room temperature for one hour. The primary antibodies-bound nitrocellulose membranes were three times washed with PBS-T (phosphate buffered saline, 0.1% Tween-20) and incubated with HRP (Horse Radish Peroxidase)-conjugated secondary antibodies for one hour. The expression of caspase-3, caspase-8, caspase-9, and PARP was detected using ECL reagent (PerkinElmer Life Science, Inc.).

[3] = test system: caspases in human lung cancer cells; assay: as above; type: cell-based; conditions: 10 μg/ml phytosphingosine, FIG. 10
Method: as §1

[4] = test system: human uterine cervical cancer cells (NCI-H460 cells); assay: In vivo animal test, tumor volume in transplanted nude mice (phytosphingosine alone); conditions: FIG. 11
Method: Nude mice (body weight: about 20 g) were randomized into 2 groups: a first group is for a control group and a second group is for treatment with phytosphingosine. The femoral region of the nude mice was transplanted with human uterine cervical cancer cells ([…]). Then, tumor volume was allowed to reach a level of […]. A 50 mg/kg solution of phytosphingosine in an olive oil was orally administered to the second group for one week on a daily basis.

[5] = test system: human lung cancer cells (NCI-H460); assay: Apoptosis test (Sub G1, propidium iodide, flow cytometry); type: cell-based
Method: Cancer cells as used in the experiment were human lung cancer cells (NCI-H460, Korean Cell Line Bank), human breast cancer cells (MDA-MB-231, American Type Culture Collection (ATCC)), human uterine cervical cancer cells (HeLa, Korean Cell Line Bank), and blood cancer cells (Jurkat, ATCC). These cancer cells were cultured in RPMI 1640 media containing 10% FBS, penicillin, and streptomycin (GIBCO BRL).
The apoptosis tests were carried out at human lung cancer cells, breast cancer cells, uterine cervical cancer cells, and blood cancer cells as follows:
Phytosphingosine or a derivative thereof was dissolved in DMSO. Samples of the resultant solution of different concentration levels (1, 2, 5, 10, 15, 20 μg/ml) were prepared. According to the following treatment schedule, phytosphingosine treated cancer cells were cultured, washed with PBS (phosphate buffered saline), and fixed with 70% ethanol. The fixed cells were again washed with PBS, suspended in PBS, and 1 mg/ml of RNase was added thereto. Then, DNA was stained with 50 μg/ml of propidium iodide fluorescent dye and the change in the Sub G1 was analyzed by flow cytometry (Becton DICKINSON). The Sub G1, a marker of apoptotic cell death, means DNA distribution lower than that in the G1 phase of cell cycle.
(1-1) In order to determine an anticancer effect of phytosphingosine, 5 ml of 10 μg/ml of phytosphingosine was added to respective dishes containing lung cancer cells, breast cancer cells, uterine cervical cancer cells, and blood cancer cells.
(1-2) In order to examine a correlation of an anticancer effect with the phytosphingosine concentration and post-treatment culture time, each 5 ml of 2, 5, 10, and 15 μg/ml of phytosphingosine was added to respective human uterine cervical cancer cell-containing dishes and human breast cancer cell-containing dishes. In addition, each 5 ml of 5, 10, 15, and 20 μg/ml of phytosphingosine was added to respective human lung cancer cell-containing dishes, and each 5 ml of 1, 5, 10, and 20 μg/ml of phytosphingosine was added to respective human blood cancer cell-containing dishes.
(1-3) An anticancer effect of phytosphingosine derivatives was determined in the same manner as mentioned in (1-1) and (1-2) except using 5 μg/ml of C4PS, C6PS, C8PS, and C12PS.

Q: For `CCCCCCCCCCCCCC[C@@H](O)[C@@H](O)[C@@H](N)CO` [phytosphingosine], which LD50 [1] is on record?
A: Its LD50 is at least 2000 mg/kg.

Q: And the “activities of the caspases” value [2]?
A: Its value is “considerably increased”.

Q: What about the “activities of the caspases” value [3] of the same compound?
A: The value was “considerably increased”.

Q: And the “inhibitory effect on tumor growth compared to control group” value ([4]; 50 mg/kg/day oral for one week, at the 40th day)?
A: The value was “potent inhibitory effect on tumor growth”.

Q: And the tumor size change ([4]; 50 mg/kg/day oral in olive oil for one week, versus control group)?
A: The tumor size change was “did not show changes for 20 days”.

Q: What about the apoptosis ([5]; 10 μg/ml or more, culture of 6 hours or more, FIG. 5) of the same compound?
A: The apoptosis was 50%.

Q: And the apoptotic rate ([5]; 10 μg/ml phytosphingosine, test (1-1), FIG. 1)?
A: The apoptotic rate was at least 50%.

Q: What about the apoptosis ([5]; 10 μg/ml, at 3-6 hours after treatment) of the same compound?
A: Its apoptosis is at least 50%.
